How the values were obtained:
Test in all cases: relative viability (nuclei count vs DMSO), 5 days (fraction); higher = more cells survive
Quizartinib + Navitoclax = compound: CC(C)(C)c1cc(NC(=O)Nc2ccc(-c3cn4c(n3)sc3cc(OCCN5CCOCC5)ccc34)cc2)no1 [Quizartinib] + CC1(C)CCC(c2ccc(Cl)cc2)=C(CN2CCN(c3ccc(C(=O)NS(=O)(=O)c4ccc(N[C@H](CCN5CCOCC5)CSc5ccccc5)c(S(=O)(=O)C(F)(F)F)c4)cc3)CC2)C1 [Navitoclax] (partner 0.5 µM)
Summary of the method: (§1)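 Nuclei were stained with Hoechst during a one-step fixation (final 0.05% Triton X-100, 1% formaldehyde, 1 ug/ml Hoechst) carried out 5 days after dosing, then counted on 4× images. The cells, lung cancer lines in 1536-well plates, had been dosed by pin tool the day after seeding with one drug alone or a fixed anchor-drug dose plus five library-drug doses (not always all listed) in √10 steps. Relative viability is the nuclei count in treated wells divided by that in vehicle wells, and each value is the median of duplicate plates.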

Quizartinib + Bortezomib = compound: CC(C)(C)c1cc(NC(=O)Nc2ccc(-c3cn4c(n3)sc3cc(OCCN5CCOCC5)ccc34)cc2)no1 [Quizartinib] + CC(C)C[C@H](NC(=O)[C@H](Cc1ccccc1)NC(=O)c1cnccn1)B(O)O [Bortezomib] (partner 0.002 µM)
Summary of the method: as §1

Quizartinib + Pemetrexed = compound: CC(C)(C)c1cc(NC(=O)Nc2ccc(-c3cn4c(n3)sc3cc(OCCN5CCOCC5)ccc34)cc2)no1 [Quizartinib] + Nc1nc2[nH]cc(CCc3ccc(C(=O)N[C@@H](CCC(=O)O)C(=O)O)cc3)c2c(=O)[nH]1 [Pemetrexed] (partner 0.2 µM)
Summary of the method: as §1

YM155 + Phenformin = compound: COCC[n+]1c2c(n(Cc3cnccn3)c1C)C(=O)c1ccccc1C2=O [YM155] + N=C(N)NC(=N)NCCc1ccccc1 [Phenformin] (partner 250 µM)
Summary of the method: as §1

Row | Cell Line | relative viability (Quizartinib + Navitoclax; first compound 0.001 µM) | relative viability (Quizartinib + Navitoclax; first compound 0.003162 µM) | relative viability (Quizartinib + Navitoclax; first compound 0.01 µM) | relative viability (Quizartinib + Navitoclax; first compound 0.03162 µM) | relative viability (Quizartinib + Navitoclax; first compound 0.1 µM) | relative viability (Quizartinib + Bortezomib; first compound 0.001 µM) | relative viability (Quizartinib + Bortezomib; first compound 0.003162 µM) | relative viability (Quizartinib + Bortezomib; first compound 0.01 µM) | relative viability (Quizartinib + Bortezomib; first compound 0.03162 µM) | relative viability (Quizartinib + Bortezomib; first compound 0.1 µM) | relative viability (Quizartinib + Pemetrexed; first compound 0.001 µM) | relative viability (Quizartinib + Pemetrexed; first compound 0.003162 µM) | relative viability (Quizartinib + Pemetrexed; first compound 0.01 µM) | relative viability (Quizartinib + Pemetrexed; first compound 0.03162 µM) | relative viability (Quizartinib + Pemetrexed; first compound 0.1 µM) | relative viability (YM155 + Phenformin; first compound 0.002 µM) | relative viability (YM155 + Phenformin; first compound 0.006325 µM) | relative viability (YM155 + Phenformin; first compound 0.02 µM) | relative viability (YM155 + Phenformin; first compound 0.06325 µM)
1 | HCC-366 | 0.799 | 1.01 | 0.957 | 1.06 | 0.903 | 0.989 | 0.974 | 1.13 | 0.967 | 1.01 | 0.148 | 0.148 | 0.129 | 0.165 | 0.178 | 0.592 | 0.55 | 0.628 | 0.597
2 | HCC-827 | 0.987 | 1.03 | 1.05 | 0.957 | 1.13 | 0.998 | 1.11 | 1.02 | 1.06 | 1.01 | 0.237 | 0.249 | – | 0.24 | 0.276 | 0.419 | 0.404 | 0.375 | 0.473
3 | HOP-62 | 1 | 0.888 | 1.16 | 1.01 | 1.1 | 0.564 | 0.72 | 0.73 | 0.517 | 0.749 | 0.3 | 0.248 | 0.315 | 0.325 | 0.323 | 0.566 | 0.648 | 0.658 | 0.6
4 | IA-LM | 0.836 | 0.908 | 0.776 | 0.836 | 0.718 | 0.774 | 0.738 | 0.885 | 0.812 | 0.736 | – | – | – | – | – | – | – | – | –
5 | LC-2-ad | 0.317 | 0.446 | 0.518 | 0.453 | 0.394 | 0.955 | 0.954 | 1.11 | 1.06 | 0.996 | 0.275 | 0.285 | 0.268 | 0.269 | 0.233 | 0.528 | 0.616 | 0.581 | 0.535
6 | LCLC-97TM1 | – | 0.669 | 0.489 | 0.355 | 0.413 | – | 0.689 | 0.811 | – | 0.527 | 0.178 | 0.177 | 0.195 | 0.184 | 0.191 | 0.387 | 0.432 | 0.407 | 0.447
7 | LCLC-103H | – | – | – | – | – | 0.871 | 1.01 | 0.994 | 1 | 1.12 | 0.419 | 0.485 | 0.484 | 0.464 | 0.493 | 0.359 | 0.314 | 0.347 | 0.323
8 | LK-2 | 0.827 | 0.803 | 1.09 | 0.77 | 0.861 | – | – | – | – | – | 0.262 | 0.301 | 0.285 | 0.248 | 0.336 | 0.356 | 0.571 | 0.447 | 0.379
9 | NCI-H358 | – | – | – | – | – | – | – | – | – | – | 0.164 | 0.148 | 0.223 | – | 0.155 | 0.325 | 0.315 | 0.37 | 0.351
10 | NCI-H522 | – | – | – | – | – | – | – | – | – | – | 0.948 | 0.984 | 0.934 | 0.948 | 1.01 | 0.67 | 0.604 | 0.628 | 0.659
11 | NCI-H650 | – | – | – | – | – | 0.785 | 0.768 | 0.818 | 0.885 | 1.01 | 0.902 | 0.945 | 0.9 | 0.912 | 1.09 | 0.417 | 0.477 | 0.523 | 0.447
12 | NCI-H661 | – | – | – | – | – | 0.747 | 0.903 | 0.684 | 0.791 | 0.878 | 0.868 | 0.887 | 0.926 | 0.898 | 0.89 | 0.257 | 0.245 | 0.264 | 0.288
13 | NCI-H727 | 0.408 | – | 0.611 | 0.476 | 0.357 | 0.656 | – | 0.955 | 0.767 | 0.833 | – | – | – | – | – | 0.532 | 0.522 | 0.634 | 0.689
14 | NCI-H1299 | – | 1.03 | 1.02 | 1.01 | 1.04 | – | 0.985 | 1.01 | 1.02 | 1.04 | – | – | – | – | – | – | – | – | –
15 | NCI-H1395 | 1.05 | 1.07 | 1.14 | 1.59 | 1.36 | – | – | – | – | – | 0.802 | 0.927 | 0.717 | 0.74 | 1 | 0.419 | 0.465 | 0.453 | 0.481
16 | NCI-H1563 | – | – | – | – | – | 0.968 | 0.833 | 0.791 | – | 0.84 | 1.18 | 0.788 | 0.8 | 0.717 | 0.76 | 0.632 | 0.682 | 0.63 | 0.65
17 | NCI-H1623 | – | – | – | – | – | – | – | – | – | – | – | – | – | – | – | 0.599 | 0.6 | 0.643 | 0.604
18 | NCI-H1703 | 0.978 | 0.474 | 0.234 | 0.214 | 0.296 | 0.418 | 0.269 | 0.16 | 0.18 | 0.256 | – | – | – | – | – | – | – | – | –
19 | NCI-H1793 | 0.414 | 0.304 | 0.496 | 0.423 | 0.331 | – | – | – | – | – | 0.806 | 1.03 | 0.841 | 0.854 | 0.929 | 0.348 | 0.371 | 0.365 | 0.353
20 | NCI-H1944 | 0.888 | 1.07 | 1.06 | 1.08 | 1.07 | – | – | – | – | – | 0.55 | 0.575 | 0.601 | 0.654 | 0.583 | 0.208 | 0.17 | 0.202 | 0.205
21 | NCI-H2170 | 0.765 | 0.627 | 0.715 | 0.573 | 0.665 | – | – | – | – | – | 0.252 | 0.242 | 0.279 | 0.293 | 0.277 | 0.416 | 0.4 | 0.413 | 0.408
22 | NCI-H2342 | – | – | – | – | – | – | – | – | – | – | 0.745 | 0.83 | 0.774 | 0.746 | 0.778 | 0.581 | 0.612 | 0.584 | 0.65
23 | SK-MES-1 | 1.05 | 1.1 | 1.35 | 1.13 | 1.26 | – | – | – | – | – | 0.939 | 0.904 | 0.981 | 0.563 | 0.817 | 0.584 | 0.695 | 0.575 | 0.256
24 | SW 900 | – | – | – | – | – | – | – | – | – | – | 0.435 | 0.488 | 0.422 | 0.485 | 0.483 | 0.638 | 0.642 | 0.674 | 0.69
